Experimental data published in US20190071416A1, “COMPOUNDS FOR TREATMENT OF CANCER AND EPIGENETICS” (Agency For Science, Technology and Research, priority 2015, published 2019).
pIC50: −log10 of the molar value.

target: T1, SMYD3 (Homo sapiens, UniProt Q9H7B4); experiment: SMYD3 biochemical assay (MTase-Glo, MAP3K2 peptide substrate); details: Table 3; MTase assay, MAP3K2 peptide substrate; read-out: IC50
T1 sequence (Q9H7B4 1-428): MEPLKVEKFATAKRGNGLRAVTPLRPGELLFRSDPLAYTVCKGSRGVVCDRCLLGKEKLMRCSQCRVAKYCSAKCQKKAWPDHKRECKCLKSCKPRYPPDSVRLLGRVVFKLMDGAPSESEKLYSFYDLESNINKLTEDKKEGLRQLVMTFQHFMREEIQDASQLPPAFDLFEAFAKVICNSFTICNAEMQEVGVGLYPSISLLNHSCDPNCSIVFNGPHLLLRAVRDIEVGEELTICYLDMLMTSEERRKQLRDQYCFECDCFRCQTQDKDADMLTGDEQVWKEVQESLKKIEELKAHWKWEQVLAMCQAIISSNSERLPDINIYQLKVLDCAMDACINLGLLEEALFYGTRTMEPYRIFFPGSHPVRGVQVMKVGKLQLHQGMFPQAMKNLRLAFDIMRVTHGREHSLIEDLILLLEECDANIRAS
Method in brief: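 Methylation of MAP3K2 peptide (10 µM final) with SAM (1.0 µM final) by SMYD3, 30 min at room temperature. SAH formed was enzymatically converted to ATP and detected as luminescence with MTase-Glo reagents; IC50 by non-linear regression.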

Going from `CCCOC(=O)N1CCN(C(=O)c2ccc3c(Cl)cc(-c4ccc(OC)c(C)c4)nc3c2)CC1` [B099, Propyl 4-(4-chloro-2-(4-methoxy-3-methylphenyl)quinoline-7-carbonyl)piperazine-1-carboxylate] to `CCCOC(=O)N1CCN(C(=O)c2ccc3c(Cl)cc(-c4ccc(OC)c(CO)c4)nc3c2)CC1` [B100, Propyl 4-(4-chloro-2-(3-(hydroxymethyl)-4-methoxyphenyl)quinoline-7-carbonyl)piperazine-1-carboxylate], the pIC50 rises from 6.46 to 6.96 (0.50 log units).

Going from `CCCOC(=O)N1CCN(C(=O)c2ccc3c(Cl)cc(-c4ccc(C#N)c(C)c4)nc3c2)CC1` [B101, Propyl 4-(4-chloro-2-(4-cyano-3-methylphenyl)quinoline-7-carbonyl)piperazine-1-carboxylate] to `CCCOC(=O)N1CCN(C(=O)c2ccc3c(Cl)cc(-c4ccc(CN)c(C)c4)nc3c2)CC1` [B108, Propyl 4-(2-(4-(aminomethyl)-3-methylphenyl)-4-chloroquinoline-7-carbonyl)piperazine-1-carboxylate], the pIC50 rises from 5.74 to 6.92 (1.18 log units). The second is the more potent here.

Compared with `CCCOC(=O)N1CCN(C(=O)c2ccc3c(Cl)cc(-c4cccc(C(=O)N(C)C)c4)nc3c2)CC1` [B102, Propyl 4-(4-chloro-2-(3-(dimethylcarbamoyl)phenyl)quinoline-7-carbonyl)piperazine-1-carboxylate], `CCCOC(=O)N1CCN(C(=O)c2ccc3c(Cl)cc(-c4cccc(CN(C)C)c4)nc3c2)CC1` [B112, Propyl 4-(4-chloro-2-(3-((dimethylamino)methyl)phenyl)quinoline-7-carbonyl)piperazine-1-carboxylate] is 0.57 log units higher in pIC50: 6.28 for the first, 6.85 for the second.

First: CCCOC(=O)N1CCN(C(=O)c2ccc3c(Cl)cc(-c4ccc(S(N)(=O)=O)cc4)nc3c2)CC1 [B103, Propyl 4-(4-chloro-2-(4-sulfamoylphenyl)quinoline-7-carbonyl)piperazine-1-carboxylate]
Second: CCCOC(=O)N1CCN(C(=O)c2ccc3c(Cl)cc(-c4ccc(S(=O)(=O)NC)cc4)nc3c2)CC1 [B116, Propyl 4-(4-chloro-2-(4-(N-methylsulfamoyl)phenyl)quinoline-7-carbonyl)piperazine-1-carboxylate]
The pIC50 of the first is 0.52 log units higher: 6.89 for the first, 6.37 for the second.

Compared with `CCCOC(=O)N1CCN(C(=O)c2ccc3c(Cl)cc(-c4ccc(OC)c(CN(C)C)c4)nc3c2)CC1` [B104, Propyl 4-(4-chloro-2-(3-((dimethylamino)methyl)-4-methoxyphenyl)quinoline-7-carbonyl)piperazine-1-carboxylate], `CCCOC(=O)N1CCN(C(=O)c2ccc3c(Cl)cc(-c4ccc(OC)c(CNC)c4)nc3c2)CC1` [B120, Propyl 4-(4-chloro-2-(4-methoxy-3-((methylamino)methyl)phenyl)quinoline-7-carbonyl)piperazine-1-carboxylate] is 0.54 log units higher in pIC50: 6.92 for the first, 7.46 for the second. The second is the more potent here.

`CCCOC(=O)N1CCN(C(=O)c2ccc3c(Cl)cc(-c4cccc(CN5CCOCC5)c4)nc3c2)CC1` [B105, Propyl 4-(4-chloro-2-(3-(morpholinomethyl)phenyl)quinoline-7-carbonyl)piperazine-1-carboxylate] and `CCCOC(=O)N1CCN(C(=O)c2ccc3c(Cl)cc(-c4cccc(S(N)(=O)=O)c4)nc3c2)CC1` [B117, Propyl 4-(4-chloro-2-(3-sulfamoylphenyl)quinoline-7-carbonyl)piperazine-1-carboxylate] are within 0.2 log units of each other in pIC50: 6.07 for the first, 6.04 for the second.

Compared with `CCCOC(=O)N1CCN(C(=O)c2ccc3c(Cl)cc(-c4ccc(OC)c(C#N)c4)nc3c2)C[C@H]1C` [B106, Propyl (R)-4-(4-chloro-2-(3-cyano-4-methoxyphenyl)quinoline-7-carbonyl)-2-methylpiperazine-1-carboxylate], `CCCOC(=O)N1CCN(C(=O)c2ccc3c(Cl)cc(-c4ccc(OC)c(CN)c4)nc3c2)C[C@H]1C` [B107, Propyl (R)-4-(2-(3-(aminomethyl)-4-methoxyphenyl)-4-chloroquinoline-7-carbonyl)-2-methylpiperazine-1-carboxylate] is 0.87 log units higher in pIC50: 6.25 for the first, 7.12 for the second.

Compared with `CCCOC(=O)N1CCN(C(=O)c2ccc3c(Cl)cc(C4(C)CC4)nc3c2)C[C@H]1C` [B109, Propyl (R)-4-(4-chloro-2-(1-methylcyclopropyl)quinoline-7-carbonyl)-2-methylpiperazine-1-carboxylate], `CCCOC(=O)N1CCN(C(=O)c2ccc3c(Cl)cc(-c4ccc(CNC)cc4)nc3c2)C[C@H]1C` [B119, Propyl (R)-4-(4-chloro-2-(4-((methylamino)methyl)phenyl)quinoline-7-carbonyl)-2-methylpiperazine-1-carboxylate] is 0.96 log units higher in pIC50: 6.42 for the first, 7.38 for the second.

Going from `CCCOC(=O)N1CCN(C(=O)c2ccc3c(Cl)cc(-c4ccc(CN(C)C)cc4)nc3c2)CC1` [B110, Propyl 4-(4-chloro-2-(4-((dimethylamino)methyl)phenyl)quinoline-7-carbonyl)piperazine-1-carboxylate] to `CCCOC(=O)N1CCN(C(=O)c2ccc3c(Cl)cc(-c4ccc(C(=O)NC)cc4)nc3c2)CC1` [B118, Propyl 4-(4-chloro-2-(4-(methylcarbamoyl)phenyl)quinoline-7-carbonyl)piperazine-1-carboxylate], the pIC50 falls from 6.80 to 6.60 (0.20 log units).

Compared with `CCCOC(=O)N1CCN(C(=O)c2ccc3c(Cl)cc(-c4cccc(CN(C)C)c4)nc3c2)C[C@H]1C` [B111, Propyl (R)-4-(4-chloro-2-(3-((dimethylamino)methyl)phenyl)quinoline-7-carbonyl)-2-methylpiperazine-1-carboxylate], `CCCOC(=O)N1CCN(C(=O)c2ccc3c(Cl)cc(-c4cccc(CNC)c4)nc3c2)C[C@H]1C` [B124, Propyl (R)-4-(4-chloro-2-(3-((methylamino)methyl)phenyl)quinoline-7-carbonyl)-2-methylpiperazine-1-carboxylate] is 0.56 log units higher in pIC50: 6.66 for the first, 7.22 for the second. The second is the more potent here.

`CCCOC(=O)N1CCN(C(=O)c2ccc3c(Cl)c(C)c(-c4ccc(C(N)=O)cc4)nc3c2)C[C@H]1C` [B113, Propyl (R)-4-(2-(4-carbamoylphenyl)-4-chloro-3-methylquinoline-7-carbonyl)-2-methylpiperazine-1-carboxylate] and `CCCOC(=O)N1CCN(C(=O)c2ccc3c(Cl)c(C)c(-c4ccc(CN)cc4)nc3c2)C[C@H]1C` [B122, Propyl (R)-4-(2-(4-(aminomethyl)phenyl)-4-chloro-3-methylquinoline-7-carbonyl)-2-methylpiperazine-1-carboxylate] are within 0.2 log units of each other in pIC50: 7.04 for the first, 7.15 for the second.

First: CCCOC(=O)N1CCN(C(=O)c2ccc3c(Cl)c(C)c(-c4ccc(C#N)cc4)nc3c2)C[C@H]1C [B114, Propyl (R)-4-(4-chloro-2-(4-cyanophenyl)-3-methylquinoline-7-carbonyl)-2-methylpiperazine-1-carboxylate]
Second: CCCOC(=O)N1CCN(C(=O)c2ccc3c(Cl)cc(-c4ccc(NC(C)=O)cc4)nc3c2)C[C@H]1C [B121, Propyl (R)-4-(2-(4-acetamidophenyl)-4-chloroquinoline-7-carbonyl)-2-methylpiperazine-1-carboxylate]
The pIC50 of the first is 0.88 log units lower: 6.38 for the first, 7.26 for the second. The second is the more potent here.

First: CCCOC(=O)N1CCN(C(=O)c2ccc3c(Cl)cc(-c4ccnc(C)c4)nc3c2)CC1 [B115, Propyl 4-(4-chloro-2-(2-methylpyridin-4-yl)quinoline-7-carbonyl)piperazine-1-carboxylate]
Second: CCCOC(=O)N1CCN(C(=O)c2ccc3c(Cl)cc(-c4ccc5c(cnn5C)c4)nc3c2)CC1 [B123]
The pIC50 of the first is 0.71 log units lower: 6.11 for the first, 6.82 for the second.
